Values quoted from earlier work as cited in patent publication US20080146444A1, “Method and compositions for improving plant growth” (Polymer Ventures, Inc., priority 2006, published 2008).

Key:
Xylella fastidiosa = conditions: 62.5 ppm
cucumber seed radicle = conditions: levels as low as 7-174 ppm (0.00002 M to 0.0005 M)
plant = conditions: applied at 14 ppm to 1400 ppm (0.1-10 millimolar)

**Q.** With `CC(C)=CCCC(C)=CC=O` [citral] as the compound, how does the “kill of Xylella fastidiosa” value (Xylella fastidiosa) read?
**A.** The value was “incomplete kill”.

**Q.** Which “cucumber seed radicle growth” value (cucumber seed radicle) does the source give for `CC(C)C1CCC(C)(O)C([N+](C)(C)C2CCCC2)C1.[Br-]` (stereo not shown) [cyclopentyl dimethyl (1-hydroxy-p-menth-2-yl)ammonium bromide] here?
**A.** The value was “inhibited”.

**Q.** With `C=C(C)[C@H]1CC=C(C)CC1` [limonene] as the compound, how does the “plant primary root growth” value (plant) read?
**A.** The value was “no improvement”.

**Q.** And the seed germination (plant)?
**A.** The seed germination was “no improvement”.
